11 molecules from ChEMBL document CHEMBL1201862, “PubChem BioAssay data set” (2004) can be followed below.

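Grown in 96-well plates, cells were treated for 48 hours with each compound at five concentrations. Insufficient inhibition: endpoint recorded as highest concentration tested. GI50 is the concentration that inhibits growth by half.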 Calls of active or inactive are those of the source. No stated cut-off is given here; in the data, active = GI50 up to about 1.1 µM and inactive = higher. A value given as a limit tells only on which side of the number the result lay.

Test systems include M14; K562; SK-MEL-2; MDA-N; UO-31; OVCAR-3; MCF7; TK-10; SNB-19; RXF 393; CAKI-1; OVCAR-8; HCT-15; SF-268; IGROV-1; MOLT-4; NCI-H522; SNB-75; SF-295; HCC 2998.
Holding throughout (test): NCI anticancer screen, dose series, 48 h

Turning to `COc1cc(C(=O)N(C(=S)OCc2ccccn2)c2ccccc2)cc(OC)c1OC`, the GI50 with M14 is > 100 µM (inactive); with K562 it was 41.1 µM (inactive); in the assay on SK-MEL-2, > 100 µM (inactive); in the assay with MDA-N, 96.4 µM (inactive); in the assay on UO-31, 25.4 µM (inactive); in the assay with OVCAR-3, > 100 µM (inactive). For the same molecule, the GI50 is 33.7 µM (inactive) with MCF7; 70.8 µM (inactive) with TK-10; > 100 µM (inactive) with SNB-19; 42.2 µM (inactive) with RXF 393; 44.7 µM (inactive) in the assay with CAKI-1; 62.2 µM (inactive) in the assay on OVCAR-8. The GI50 with HCT-15 is 39.6 µM; with SF-268, > 100 µM (inactive); in the assay on IGROV-1, 16.3 µM (inactive); with MOLT-4 it was 25.6 µM (inactive).
For `COc1ccc2c(c1)N(CCC1CCCCN1C)c1ccccc1S2` (stereo not given) [OXYRIDAZINE], the GI50 was 3.13 µM (inactive) in the assay on M14; 4.37 µM (inactive) in the assay with K562; 14.7 µM (inactive) with SK-MEL-2; 12 µM (inactive) in the assay with MDA-N; 13.1 µM (inactive) in the assay on NCI-H522; 15.6 µM (inactive) in the assay with OVCAR-3. The GI50 in the assay on SNB-75 is 11.6 µM (inactive); in the assay on MCF7, 11.4 µM (inactive); in the assay with TK-10, 14.5 µM (inactive); in the assay with SNB-19 it was 15.2 µM (inactive); with RXF 393, 7.18 µM (inactive); with CAKI-1, 9.48 µM (inactive). Also, the GI50 is 15 µM (inactive) with OVCAR-8; 13.4 µM with HCT-15; 12.4 µM (inactive) with SF-268; 16 µM (inactive) with SF-295; 12.5 µM (inactive) in the assay on IGROV-1; 4.85 µM (inactive) with MOLT-4.
For `Cc1nnc(N/N=C2/C(=O)Nc3ccccc32)nc1O`, the GI50 in the assay on M14, in the assay with K562, in the assay on SK-MEL-2, in the assay with MDA-N, with UO-31 and in the assay on NCI-H522 was > 100 µM (inactive) each time. Also, the GI50 is > 100 µM (inactive) in the assay on OVCAR-3; > 100 µM (inactive) in the assay with MCF7; > 100 µM (inactive) in the assay with TK-10; > 100 µM (inactive) in the assay with SNB-19; > 100 µM (inactive) in the assay on OVCAR-8; more than 100 µM with HCT-15. In addition, the GI50 with SF-268, with SF-295, in the assay with IGROV-1 and with MOLT-4 was > 100 µM (inactive) in each case.
Turning to `CC(=O)c1c(-c2ccc(Cl)cc2)c(C#N)c(=S)n(C2OC(CO)C(O)C(O)C2O)c1C` (stereo not given), the GI50 in the assay with M14 was 57.7 µM (inactive); in the assay with K562 it was 32.4 µM (inactive); in the assay on SK-MEL-2, 28.2 µM (inactive); in the assay with MDA-N, 30.8 µM (inactive); with UO-31, 1.44 µM (inactive); with NCI-H522 it was 32.3 µM (inactive). Moreover, the GI50 with OVCAR-3 was 30.8 µM (inactive); in the assay with SNB-75 it was > 100 µM (inactive); in the assay on TK-10 it was 70.6 µM (inactive); with SNB-19 it was 31 µM (inactive); in the assay on HCC 2998, > 100 µM (inactive); in the assay on RXF 393, 98.2 µM (inactive). Moreover, the GI50 in the assay on OVCAR-8 is > 100 µM (inactive); in the assay with HCT-15, 82 µM; with SF-268 it was 53.3 µM (inactive); with SF-295 it was 54.6 µM (inactive); in the assay on IGROV-1, 35.6 µM (inactive); in the assay with MOLT-4, 21.6 µM (inactive).
For the molecule `CC(=O)c1c(-c2ccccc2)c(-c2ccc(OCCN(C)C)cc2)n2ccccc12`, the GI50 is 16.7 µM (inactive) in the assay on M14; 13.4 µM (inactive) with K562; 19.1 µM (inactive) in the assay with SK-MEL-2; 15.8 µM (inactive) with MDA-N; 16.7 µM (inactive) in the assay with UO-31; 14.1 µM (inactive) with NCI-H522. Besides, the GI50 was 16.6 µM (inactive) in the assay with OVCAR-3; 12.4 µM (inactive) with SNB-75; 18 µM (inactive) in the assay on MCF7; 17 µM (inactive) in the assay on TK-10; 19.3 µM (inactive) in the assay on SNB-19; 14.6 µM (inactive) in the assay on HCC 2998. In addition, the GI50 with CAKI-1 was 18.5 µM (inactive); in the assay on OVCAR-8, 14.9 µM (inactive); in the assay on HCT-15 it was 10.7 µM; in the assay on SF-268, 16.8 µM (inactive); in the assay with SF-295, 17.2 µM (inactive); in the assay on IGROV-1, 16.6 µM (inactive). In addition, the GI50 in the assay on MOLT-4 is 15 µM (inactive).
Take `CCOC(=O)/C(=N\Nc1ccc(-n2c(C)nc3ccccc3c2=O)cc1)C(C)=O`: the GI50 was 24.2 µM (inactive) in the assay with M14; 32.6 µM (inactive) in the assay on K562; 54.5 µM (inactive) with SK-MEL-2; 29 µM (inactive) in the assay with MDA-N; 29.1 µM (inactive) in the assay on UO-31; 21.7 µM (inactive) in the assay with OVCAR-3. In addition, the GI50 in the assay on SNB-75 is 17.2 µM (inactive); in the assay with MCF7, 37.7 µM (inactive); with TK-10 it was 20.9 µM (inactive); in the assay with SNB-19, > 100 µM (inactive); in the assay with CAKI-1 it was > 100 µM (inactive); in the assay on OVCAR-8 it was 19.6 µM (inactive). Moreover, the GI50 with HCT-15 is 37.7 µM; in the assay on SF-268 it was 25.8 µM (inactive); in the assay on SF-295, 33 µM (inactive); with IGROV-1, 22.9 µM (inactive); in the assay with MOLT-4, 13.5 µM (inactive).
Turning to `Cc1cc2c(c(=O)n1C)SCC2`, the GI50 with M14, in the assay with K562, in the assay on SK-MEL-2, with MDA-N, in the assay on UO-31 and in the assay on NCI-H522 was > 100 µM (inactive) throughout. In addition, the GI50 in the assay with OVCAR-3, in the assay with SNB-75, in the assay on TK-10, in the assay on SNB-19, in the assay on HCC 2998 and with RXF 393 was > 100 µM (inactive) each time. Also, the GI50 is > 100 µM (inactive) with CAKI-1; > 100 µM (inactive) in the assay on OVCAR-8; more than 100 µM in the assay with HCT-15; > 100 µM (inactive) in the assay on SF-268; > 100 µM (inactive) with SF-295; > 100 µM (inactive) in the assay with IGROV-1. Besides, the GI50 in the assay on MOLT-4 is > 100 µM (inactive).
Turning to `CC(=O)c1cccc(Nc2nc3ccc(Cl)cc3c3[nH]c4ccccc4c23)c1`, the GI50 with M14 was 11 µM (inactive); with K562, 1.41 µM (inactive); with SK-MEL-2, 3.36 µM (inactive); in the assay on MDA-N it was 7.74 µM (inactive); in the assay on UO-31, 6.07 µM (inactive); in the assay on NCI-H522 it was 2.8 µM (inactive). The GI50 in the assay with OVCAR-3 was 0.045 µM (active); with MCF7 it was 0.434 µM (active); in the assay on TK-10, 4.81 µM (inactive); in the assay on SNB-19, 10.5 µM (inactive); with CAKI-1, 3.03 µM (inactive); in the assay with OVCAR-8, 5.12 µM (inactive). Further, the GI50 with HCT-15 was 6.08 µM; in the assay with SF-268, 3.99 µM (inactive); in the assay on SF-295, 2.45 µM (inactive); in the assay with IGROV-1, 4.16 µM (inactive).
Regarding `COC1/C=C/C(C)C(C(C)C(OC)C(C)CCC(=O)C(C)C(CC(=O)O)OC)OC(=O)/C=C/C=C(\C)CC(OC)CC2=CC(=O)O[C@H](C2)C(C)C(OC)CC(OC)/C=C/C(C)C(OC)C1` (stereo not given in full), the GI50 in the assay on M14 is 0.222 µM (active); in the assay on K562 it was 1.79 µM (inactive); in the assay on SK-MEL-2, 0.265 µM (active); with MDA-N, 0.841 µM (active); in the assay on UO-31, 0.458 µM (active); in the assay on NCI-H522, 0.0259 µM (active). Further, the GI50 is 1.07 µM (active) with OVCAR-3; 0.00746 µM (active) in the assay on SNB-75; 0.439 µM (active) with MCF7; 0.433 µM (active) in the assay with TK-10; 0.441 µM (active) in the assay on SNB-19; 2.62 µM (inactive) in the assay with HCC 2998. Further, the GI50 in the assay with CAKI-1 is 0.0621 µM (active); in the assay with OVCAR-8, 1.14 µM (inactive); with HCT-15, 0.885 µM; with SF-268, 0.0548 µM (active); in the assay with SF-295 it was 0.258 µM (active); in the assay on IGROV-1, 0.0783 µM (active). Further, in the assay with MOLT-4, the GI50 is 1.46 µM (inactive).
Turning to `CC(=O)c1ccc2c3c1O[C@H]1c4[nH]c5ccccc5c4C[C@@]4(O)[C@@H](C2)N(CC2CC2)CC[C@]314`, the GI50 is 16.9 µM (inactive) with M14; 16.8 µM (inactive) with K562; 16.6 µM (inactive) in the assay with SK-MEL-2; 17.7 µM (inactive) with MDA-N; 15.3 µM (inactive) in the assay with UO-31; 19.1 µM (inactive) in the assay on NCI-H522. In addition, the GI50 in the assay on OVCAR-3 was 11.4 µM (inactive); in the assay with MCF7, 16.7 µM (inactive); in the assay with TK-10, 18.2 µM (inactive); with SNB-19 it was 0.573 µM (active); with RXF 393, 13.8 µM (inactive); in the assay with CAKI-1, 20 µM (inactive). Further, the GI50 with OVCAR-8 is 13.6 µM (inactive); in the assay with HCT-15, 8.67 µM; with SF-268, 13.1 µM (inactive); in the assay on SF-295, 15.6 µM (inactive); with IGROV-1 it was 13.6 µM (inactive); with MOLT-4 it was 17.1 µM (inactive).
Regarding `Cc1cc(=O)oc2c(C)c3oc(CBr)cc3cc12`, the GI50 in the assay on M14 is 18.2 µM (inactive); in the assay on K562 it was 19.9 µM (inactive); in the assay with SK-MEL-2, 24.5 µM (inactive); with MDA-N, 19.2 µM (inactive); in the assay with UO-31, 15.9 µM (inactive); in the assay on NCI-H522, 15.2 µM (inactive). In addition, the GI50 was 35.7 µM (inactive) with OVCAR-3; 22.6 µM (inactive) in the assay with SNB-75; 25.2 µM (inactive) in the assay on MCF7; 19.9 µM (inactive) in the assay with TK-10; 29 µM (inactive) with SNB-19; 15.8 µM (inactive) with HCC 2998. For the same molecule, the GI50 was 17.5 µM (inactive) with CAKI-1; 23.8 µM (inactive) in the assay on OVCAR-8; 18.2 µM with HCT-15; 19.5 µM (inactive) with SF-268; 17.1 µM (inactive) in the assay on SF-295; 16.8 µM (inactive) in the assay with IGROV-1. For the same molecule, the GI50 with MOLT-4 is 14.3 µM (inactive).
